Test results: ChEMBL document CHEMBL5303573, “Mapping human microbiome drug metabolism by gut bacteria and their genes” (Nature, 2019)

Legend:
Assay type in all cases: ADME
Design in all cases: dose 2 uM
Details in all cases: 2 µM
[1] = biological target: T1, NADH dehydrogenase/NAD(P)H nitroreductase (Bacteroides thetaiotaomicron, UniProt Q8A8L9); experiment: (§1) The drug is tested on Bacteroides thetaiotaomicron strain: VPI-5482 for biotransformation. The drug concentrations were measured before and after a 12-h incubation by liquid-chromatography-coupled mass spectrometry (LC–MS)
T1 sequence (Q8A8L9 whole entry): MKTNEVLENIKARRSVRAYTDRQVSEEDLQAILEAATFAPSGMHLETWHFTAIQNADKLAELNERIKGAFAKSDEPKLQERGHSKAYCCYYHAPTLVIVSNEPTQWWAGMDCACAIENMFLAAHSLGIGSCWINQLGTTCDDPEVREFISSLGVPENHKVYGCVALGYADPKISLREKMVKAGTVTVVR

Acyltransferase = biological target: T2, Acyltransferase (Bacteroides thetaiotaomicron, UniProt Q8A575); experiment: as §1
T2 sequence (Q8A575 whole entry): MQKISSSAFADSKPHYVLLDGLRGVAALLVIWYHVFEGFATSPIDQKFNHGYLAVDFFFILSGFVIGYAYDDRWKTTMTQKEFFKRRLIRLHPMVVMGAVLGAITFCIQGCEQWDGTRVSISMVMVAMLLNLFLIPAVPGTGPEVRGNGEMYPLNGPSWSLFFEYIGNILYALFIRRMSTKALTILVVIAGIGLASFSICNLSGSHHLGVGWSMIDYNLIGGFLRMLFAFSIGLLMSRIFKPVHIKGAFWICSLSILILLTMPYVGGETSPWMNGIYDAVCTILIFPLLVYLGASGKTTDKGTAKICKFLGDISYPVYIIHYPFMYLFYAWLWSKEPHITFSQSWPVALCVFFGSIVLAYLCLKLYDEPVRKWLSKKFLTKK

[2] = biological target: T3, Sialic acid-specific acetylesterase (Bacteroides thetaiotaomicron, UniProt Q8A331); experiment: as §1
T3 sequence (Q8A331 whole entry): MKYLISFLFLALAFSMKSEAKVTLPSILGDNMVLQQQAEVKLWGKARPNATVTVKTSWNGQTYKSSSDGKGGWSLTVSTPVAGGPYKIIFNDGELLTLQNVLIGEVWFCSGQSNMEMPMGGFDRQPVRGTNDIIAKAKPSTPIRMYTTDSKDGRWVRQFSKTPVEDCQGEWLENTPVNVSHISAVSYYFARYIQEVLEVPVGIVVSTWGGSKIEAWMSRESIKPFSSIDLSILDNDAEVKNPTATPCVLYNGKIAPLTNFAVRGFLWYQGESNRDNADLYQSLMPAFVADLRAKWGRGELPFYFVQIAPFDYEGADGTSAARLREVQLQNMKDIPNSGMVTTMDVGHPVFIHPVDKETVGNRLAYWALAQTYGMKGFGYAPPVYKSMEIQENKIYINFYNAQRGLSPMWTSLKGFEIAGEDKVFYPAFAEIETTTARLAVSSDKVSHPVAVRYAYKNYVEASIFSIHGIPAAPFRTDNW

Acylhydrolase = biological target: T4, Acylhydrolase (Bacteroides thetaiotaomicron, UniProt Q8AA96); experiment: as §1
T4 sequence (Q8AA96 whole entry): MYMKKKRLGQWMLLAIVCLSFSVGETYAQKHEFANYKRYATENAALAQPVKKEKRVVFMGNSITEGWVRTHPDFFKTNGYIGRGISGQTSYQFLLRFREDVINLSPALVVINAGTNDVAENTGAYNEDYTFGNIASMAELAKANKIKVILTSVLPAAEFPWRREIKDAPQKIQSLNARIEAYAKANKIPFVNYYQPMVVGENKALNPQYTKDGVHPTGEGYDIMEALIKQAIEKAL

Lipoprotein = biological target: T5, Lipoprotein (Bacteroides thetaiotaomicron, UniProt Q8A343); experiment: as §1
T5 sequence (Q8A343 whole entry): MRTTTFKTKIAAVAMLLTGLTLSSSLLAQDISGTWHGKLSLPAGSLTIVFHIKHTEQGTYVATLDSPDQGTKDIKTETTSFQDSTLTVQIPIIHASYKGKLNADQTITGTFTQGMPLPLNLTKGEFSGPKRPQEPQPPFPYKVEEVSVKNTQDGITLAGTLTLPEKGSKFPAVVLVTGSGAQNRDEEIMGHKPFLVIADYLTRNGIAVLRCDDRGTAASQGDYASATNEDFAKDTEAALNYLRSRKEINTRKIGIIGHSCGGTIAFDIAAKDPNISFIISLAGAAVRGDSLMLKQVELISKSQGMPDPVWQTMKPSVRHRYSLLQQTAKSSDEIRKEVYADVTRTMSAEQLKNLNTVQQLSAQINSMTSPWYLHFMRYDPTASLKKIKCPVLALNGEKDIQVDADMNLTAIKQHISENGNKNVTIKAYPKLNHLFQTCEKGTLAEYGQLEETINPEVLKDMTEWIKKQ

Regulatory protein = biological target: T6, Regulatory protein (Bacteroides thetaiotaomicron, UniProt Q8A576); experiment: as §1
T6 sequence (Q8A576 whole entry): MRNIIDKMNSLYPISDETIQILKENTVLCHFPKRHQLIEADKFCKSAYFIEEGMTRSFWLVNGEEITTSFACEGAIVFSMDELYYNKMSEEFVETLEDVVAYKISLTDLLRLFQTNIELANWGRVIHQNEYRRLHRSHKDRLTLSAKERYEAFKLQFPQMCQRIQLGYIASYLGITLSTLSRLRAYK

Endoglucanase E (EGE) = biological target: T7, Endoglucanase E (EGE) (Bacteroides thetaiotaomicron, UniProt Q8AAL9); experiment: as §1
T7 sequence (Q8AAL9 whole entry): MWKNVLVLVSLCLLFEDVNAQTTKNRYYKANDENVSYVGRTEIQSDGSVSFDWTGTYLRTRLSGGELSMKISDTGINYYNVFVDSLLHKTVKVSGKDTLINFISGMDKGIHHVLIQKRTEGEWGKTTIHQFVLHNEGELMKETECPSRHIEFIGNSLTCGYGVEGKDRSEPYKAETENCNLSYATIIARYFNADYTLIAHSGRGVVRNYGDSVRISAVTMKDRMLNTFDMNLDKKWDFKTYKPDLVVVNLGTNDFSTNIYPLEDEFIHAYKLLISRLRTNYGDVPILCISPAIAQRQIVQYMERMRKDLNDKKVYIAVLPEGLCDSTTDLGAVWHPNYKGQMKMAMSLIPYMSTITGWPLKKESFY

General stress protein = General stress protein (Bacteroides thetaiotaomicron, UniProt Q8A7U5); experiment: as §1
Sequence of General stress protein (Q8A7U5 1-138, change not shown): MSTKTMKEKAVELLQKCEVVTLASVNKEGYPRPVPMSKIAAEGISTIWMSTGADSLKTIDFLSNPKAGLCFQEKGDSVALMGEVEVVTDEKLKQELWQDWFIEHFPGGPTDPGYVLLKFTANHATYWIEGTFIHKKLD

[3] = biological target: T8, Lipolytic enzyme, G-D-S-L family (Bacteroides thetaiotaomicron, UniProt Q8A0E6); experiment: as §1
T8 sequence (Q8A0E6 whole entry): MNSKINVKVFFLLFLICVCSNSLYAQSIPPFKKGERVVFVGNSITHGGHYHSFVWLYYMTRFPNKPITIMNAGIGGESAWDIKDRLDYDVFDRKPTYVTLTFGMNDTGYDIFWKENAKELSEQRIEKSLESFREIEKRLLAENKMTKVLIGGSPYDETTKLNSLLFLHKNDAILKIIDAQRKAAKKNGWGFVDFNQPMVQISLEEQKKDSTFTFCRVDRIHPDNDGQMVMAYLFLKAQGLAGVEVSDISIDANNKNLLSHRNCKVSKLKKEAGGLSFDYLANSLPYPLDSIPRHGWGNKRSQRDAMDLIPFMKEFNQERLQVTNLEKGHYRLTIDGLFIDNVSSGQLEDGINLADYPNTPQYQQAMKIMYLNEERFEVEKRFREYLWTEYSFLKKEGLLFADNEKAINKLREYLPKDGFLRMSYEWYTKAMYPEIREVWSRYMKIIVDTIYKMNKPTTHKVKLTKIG

Structure (SMILES) | Bacterial Biotransformation [1] | Bacterial Biotransformation (Acyltransferase) | Bacterial Biotransformation [2] | Bacterial Biotransformation (Acylhydrolase) | Bacterial Biotransformation (Lipoprotein) | Bacterial Biotransformation (Regulatory protein) | Bacterial Biotransformation (Endoglucanase E (EGE)) | Bacterial Biotransformation (General stress protein) | Bacterial Biotransformation [3]
Nc1ccc(/N=N/c2ccccc2)c(N)n1 [PHENAZOPYRIDINE] | Compound NOT metabolized | Compound NOT metabolized | Compound NOT metabolized | Compound NOT metabolized | Compound NOT metabolized | Compound NOT metabolized | Compound NOT metabolized | Compound metabolized | Compound NOT metabolized
C[C@@H]1CC[C@H]2[C@@H](C)C(=O)O[C@@H]3O[C@@]4(C)CC[C@@H]1[C@]32OO4 [ARTEMISININ] | Compound NOT metabolized | Compound NOT metabolized | Compound NOT metabolized | Compound NOT metabolized | Compound NOT metabolized | Compound NOT metabolized | Compound NOT metabolized | Compound metabolized | Compound NOT metabolized
CC(=O)SCC(Cc1ccccc1)C(=O)NCC(=O)OCc1ccccc1 (stereo not drawn) [RACECADOTRIL] | Compound NOT metabolized | Compound NOT metabolized | Compound metabolized | Compound metabolized | Compound metabolized | Compound NOT metabolized | Compound NOT metabolized | Compound NOT metabolized | Compound NOT metabolized
CCN(CC)C(=O)/C(C#N)=C/c1cc(O)c(O)c([N+](=O)[O-])c1 [ENTACAPONE] | Compound metabolized | Compound NOT metabolized | Compound NOT metabolized | Compound NOT metabolized | Compound NOT metabolized | Compound NOT metabolized | Compound NOT metabolized | Compound NOT metabolized | Compound NOT metabolized
CCS(=O)(=O)CCn1c([N+](=O)[O-])cnc1C [TINIDAZOLE] | Compound metabolized | Compound NOT metabolized | Compound NOT metabolized | Compound NOT metabolized | Compound NOT metabolized | Compound NOT metabolized | Compound NOT metabolized | Compound NOT metabolized | Compound NOT metabolized
CC(=O)Oc1ccc(C(c2ccc(OC(C)=O)cc2)c2ccccn2)cc1 [BISACODYL] | Compound NOT metabolized | Compound NOT metabolized | Compound metabolized | Compound metabolized | Compound NOT metabolized | Compound NOT metabolized | Compound metabolized | Compound NOT metabolized | Compound NOT metabolized
COc1ccnc(C[S+]([O-])c2nc3ccc(OC(F)F)cc3[nH]2)c1OC (stereo not drawn) [PANTOPRAZOLE] | Compound NOT metabolized | Compound NOT metabolized | Compound NOT metabolized | Compound NOT metabolized | Compound NOT metabolized | Compound NOT metabolized | Compound NOT metabolized | Compound NOT metabolized | Compound NOT metabolized
O=C(O)c1cc(/N=N/c2ccc(S(=O)(=O)Nc3ccccn3)cc2)ccc1O [SULFASALAZINE] | Compound NOT metabolized | Compound NOT metabolized | Compound NOT metabolized |  | Compound NOT metabolized | Compound NOT metabolized | Compound NOT metabolized | Compound metabolized | Compound NOT metabolized
CC(=O)OCC(=O)NCCCOc1cccc(CN2CCCCC2)c1 [ROXATIDINE ACETATE] | Compound NOT metabolized | Compound NOT metabolized | Compound NOT metabolized | Compound metabolized | Compound NOT metabolized | Compound metabolized | Compound NOT metabolized | Compound NOT metabolized | 
CC(=O)OCC(=O)[C@@]12N=C(C)O[C@@H]1C[C@H]1[C@@H]3CCC4=CC(=O)C=C[C@]4(C)[C@H]3[C@@H](O)C[C@@]12C [DEFLAZACORT] | Compound NOT metabolized | Compound NOT metabolized |  | Compound metabolized | Compound NOT metabolized | Compound NOT metabolized | Compound NOT metabolized | Compound NOT metabolized | Compound NOT metabolized
CCOC(=O)C1=C(C)NC(C)=C(C(=O)OC)C1c1cccc([N+](=O)[O-])c1 (stereo not drawn) [NITRENDIPINE] |  | Compound NOT metabolized | Compound NOT metabolized | Compound NOT metabolized |  | Compound NOT metabolized |  | Compound NOT metabolized | Compound NOT metabolized
